{"source": "patent EP4722207A1", "about": "“OXOISOINDOLINYL-SUBSTITUTED TETRAHYDROPYRIMIDINEDIONE DERIVATIVE AND USE THEREOF” (Gluetacs Therapeutics (Shanghai) Co., Ltd., priority 2023, dated 2024)", "type_in_all_cases": "cell-based", "details_in_all_cases": "24 hours of compound treatment, 50 nM and 500 nM", "key": {"GSPT1": {"target": "T1, GSPT1 (Homo sapiens, UniProt P15170+Q96SW2)", "T1 construct": "effects of the compounds of the present disclosure on the expression of target proteins in cells; endogenous in cells; host or cells: human PBMCs (hPBMCs)", "T1 sequence (P15170 whole entry)": "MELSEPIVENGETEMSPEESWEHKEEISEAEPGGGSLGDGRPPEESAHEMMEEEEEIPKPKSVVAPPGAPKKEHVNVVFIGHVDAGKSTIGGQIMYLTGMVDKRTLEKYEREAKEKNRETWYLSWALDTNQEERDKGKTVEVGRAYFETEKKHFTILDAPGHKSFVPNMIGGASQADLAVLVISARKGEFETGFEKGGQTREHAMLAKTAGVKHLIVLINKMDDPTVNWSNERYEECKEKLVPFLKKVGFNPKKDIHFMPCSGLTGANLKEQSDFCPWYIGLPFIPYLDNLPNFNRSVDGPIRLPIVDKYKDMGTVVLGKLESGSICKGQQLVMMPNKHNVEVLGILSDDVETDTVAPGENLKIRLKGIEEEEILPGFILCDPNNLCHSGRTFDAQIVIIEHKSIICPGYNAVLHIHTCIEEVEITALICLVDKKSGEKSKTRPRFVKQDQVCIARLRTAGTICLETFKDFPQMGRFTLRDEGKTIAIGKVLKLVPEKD", "T1 sequence (Q96SW2 whole entry)": "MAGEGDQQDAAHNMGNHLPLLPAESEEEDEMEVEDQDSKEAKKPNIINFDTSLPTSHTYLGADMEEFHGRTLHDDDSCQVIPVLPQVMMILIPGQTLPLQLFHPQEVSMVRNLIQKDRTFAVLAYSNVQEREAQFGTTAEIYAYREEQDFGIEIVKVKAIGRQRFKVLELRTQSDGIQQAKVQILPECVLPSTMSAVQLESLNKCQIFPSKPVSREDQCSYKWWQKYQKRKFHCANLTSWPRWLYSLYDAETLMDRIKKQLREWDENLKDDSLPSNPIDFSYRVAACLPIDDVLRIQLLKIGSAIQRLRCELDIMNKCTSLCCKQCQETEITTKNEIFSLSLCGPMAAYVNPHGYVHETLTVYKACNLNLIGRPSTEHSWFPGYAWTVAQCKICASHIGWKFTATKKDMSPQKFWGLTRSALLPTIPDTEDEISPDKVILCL", "T1 sequence (Q16531 whole entry partner)": "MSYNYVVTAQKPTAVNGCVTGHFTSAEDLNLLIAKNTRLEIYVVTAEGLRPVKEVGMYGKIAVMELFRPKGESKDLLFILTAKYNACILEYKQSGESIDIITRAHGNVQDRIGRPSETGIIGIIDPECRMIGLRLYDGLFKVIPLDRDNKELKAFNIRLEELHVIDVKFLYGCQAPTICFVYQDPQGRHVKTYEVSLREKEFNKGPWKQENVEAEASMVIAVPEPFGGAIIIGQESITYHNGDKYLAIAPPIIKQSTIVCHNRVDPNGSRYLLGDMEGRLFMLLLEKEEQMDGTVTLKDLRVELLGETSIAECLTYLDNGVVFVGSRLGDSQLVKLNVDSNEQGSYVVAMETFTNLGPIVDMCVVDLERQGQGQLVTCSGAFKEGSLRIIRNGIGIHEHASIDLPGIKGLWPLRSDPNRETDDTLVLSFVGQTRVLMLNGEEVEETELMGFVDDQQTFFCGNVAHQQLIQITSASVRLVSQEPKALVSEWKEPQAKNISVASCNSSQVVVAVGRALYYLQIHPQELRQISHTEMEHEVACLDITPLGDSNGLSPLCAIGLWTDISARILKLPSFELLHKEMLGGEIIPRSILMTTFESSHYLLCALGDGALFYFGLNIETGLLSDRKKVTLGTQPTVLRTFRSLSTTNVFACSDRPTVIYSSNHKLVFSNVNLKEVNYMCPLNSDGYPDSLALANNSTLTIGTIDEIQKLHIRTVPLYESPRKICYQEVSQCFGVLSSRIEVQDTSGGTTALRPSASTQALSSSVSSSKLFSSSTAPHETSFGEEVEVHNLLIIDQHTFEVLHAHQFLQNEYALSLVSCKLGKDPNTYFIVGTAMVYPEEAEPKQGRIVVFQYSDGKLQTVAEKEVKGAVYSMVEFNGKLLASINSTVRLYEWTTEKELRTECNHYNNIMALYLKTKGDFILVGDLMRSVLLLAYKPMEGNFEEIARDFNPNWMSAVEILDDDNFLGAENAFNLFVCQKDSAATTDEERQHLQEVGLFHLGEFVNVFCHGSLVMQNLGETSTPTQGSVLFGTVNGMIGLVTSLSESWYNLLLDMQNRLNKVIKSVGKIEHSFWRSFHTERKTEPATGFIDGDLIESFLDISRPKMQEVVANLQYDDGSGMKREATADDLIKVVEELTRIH", "assay": "Western-blot assay, substrate protein degradation in hPBMCs: GSPT1"}, "IKZF2": {"target": "T2, IKZF2 (Homo sapiens, UniProt Q96SW2+Q9UKS7)", "T2 construct": "effects of the compounds of the present disclosure on the expression of target proteins in cells; endogenous in cells; host or cells: human PBMCs (hPBMCs)", "T2 sequence (Q9UKS7 whole entry)": "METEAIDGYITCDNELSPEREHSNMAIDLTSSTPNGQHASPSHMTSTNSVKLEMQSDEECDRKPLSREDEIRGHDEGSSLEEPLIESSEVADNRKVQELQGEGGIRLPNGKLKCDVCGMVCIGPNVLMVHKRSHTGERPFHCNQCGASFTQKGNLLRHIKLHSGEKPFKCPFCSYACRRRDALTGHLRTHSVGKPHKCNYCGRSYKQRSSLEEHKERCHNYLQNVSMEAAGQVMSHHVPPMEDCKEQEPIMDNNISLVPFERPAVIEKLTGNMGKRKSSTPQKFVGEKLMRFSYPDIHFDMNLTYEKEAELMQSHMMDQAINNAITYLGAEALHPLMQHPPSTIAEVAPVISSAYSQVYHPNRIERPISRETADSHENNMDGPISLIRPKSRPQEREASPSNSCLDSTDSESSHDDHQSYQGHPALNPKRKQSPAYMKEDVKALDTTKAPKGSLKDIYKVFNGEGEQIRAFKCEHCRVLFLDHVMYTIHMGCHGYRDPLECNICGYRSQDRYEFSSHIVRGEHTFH", "T2 sequence (Q96SW2 whole entry)": "as the sequence (Q96SW2 whole entry) above", "T2 sequence (Q16531 whole entry partner)": "as the sequence (Q16531 whole entry partner) above", "assay": "Western-blot assay, substrate protein degradation in hPBMCs: IKZF2"}, "CK1α": {"target": "T3, CK1α (Homo sapiens, UniProt P48729+Q96SW2)", "T3 construct": "effects of the compounds of the present disclosure on the expression of target proteins in cells; endogenous in cells; host or cells: human PBMCs (hPBMCs)", "T3 sequence (P48729 whole entry)": "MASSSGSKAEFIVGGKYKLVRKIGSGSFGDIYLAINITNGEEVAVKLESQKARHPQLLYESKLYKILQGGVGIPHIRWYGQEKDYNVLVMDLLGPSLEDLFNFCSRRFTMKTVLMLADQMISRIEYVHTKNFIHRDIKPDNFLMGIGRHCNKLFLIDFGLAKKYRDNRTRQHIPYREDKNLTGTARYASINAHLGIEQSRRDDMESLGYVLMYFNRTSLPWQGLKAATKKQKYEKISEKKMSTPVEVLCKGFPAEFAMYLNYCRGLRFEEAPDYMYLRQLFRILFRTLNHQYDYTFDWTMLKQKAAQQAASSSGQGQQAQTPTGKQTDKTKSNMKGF", "T3 sequence (Q96SW2 whole entry)": "as the sequence (Q96SW2 whole entry) above", "T3 sequence (Q16531 whole entry partner)": "as the sequence (Q16531 whole entry partner) above", "assay": "Western-blot assay, substrate protein degradation in hPBMCs: CK1α"}, "WEE1": {"target": "T4, WEE1 (Homo sapiens, UniProt P30291+Q96SW2)", "T4 construct": "effects of the compounds of the present disclosure on the expression of target proteins in cells; endogenous in cells; host or cells: human PBMCs (hPBMCs)", "T4 sequence (P30291 whole entry)": "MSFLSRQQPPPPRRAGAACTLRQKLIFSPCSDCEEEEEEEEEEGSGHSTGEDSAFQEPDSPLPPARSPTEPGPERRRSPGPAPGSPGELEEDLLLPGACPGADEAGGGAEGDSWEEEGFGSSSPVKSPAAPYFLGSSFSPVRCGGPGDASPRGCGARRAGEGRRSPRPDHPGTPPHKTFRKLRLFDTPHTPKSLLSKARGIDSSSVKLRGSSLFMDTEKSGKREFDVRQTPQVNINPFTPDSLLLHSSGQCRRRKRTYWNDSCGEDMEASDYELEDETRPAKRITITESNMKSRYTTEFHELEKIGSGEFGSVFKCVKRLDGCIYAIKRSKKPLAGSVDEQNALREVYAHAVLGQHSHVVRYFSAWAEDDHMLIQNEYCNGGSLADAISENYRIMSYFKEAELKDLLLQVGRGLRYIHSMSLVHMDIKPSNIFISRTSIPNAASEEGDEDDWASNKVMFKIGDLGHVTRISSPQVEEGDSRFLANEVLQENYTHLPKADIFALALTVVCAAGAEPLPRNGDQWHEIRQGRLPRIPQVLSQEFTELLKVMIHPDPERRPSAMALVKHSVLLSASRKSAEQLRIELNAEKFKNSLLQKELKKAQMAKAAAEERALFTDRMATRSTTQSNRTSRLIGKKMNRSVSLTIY", "T4 sequence (Q96SW2 whole entry)": "as the sequence (Q96SW2 whole entry) above", "T4 sequence (Q16531 whole entry partner)": "as the sequence (Q16531 whole entry partner) above", "assay": "Western-blot assay, substrate protein degradation in hPBMCs: WEE1"}, "IKZF1": {"target": "T5, IKZF1 (Homo sapiens, UniProt Q13422+Q96SW2)", "T5 construct": "effects of the compounds of the present disclosure on the expression of target proteins in cells; endogenous in cells; host or cells: human PBMCs (hPBMCs)", "assay": "Western-blot assay, substrate protein degradation in hPBMCs: IKZF1"}, "IKZF3": {"target": "T6, IKZF3 (Homo sapiens, UniProt Q96SW2+Q9UKT9)", "T6 construct": "effects of the compounds of the present disclosure on the expression of target proteins in cells; endogenous in cells; host or cells: human PBMCs (hPBMCs)", "T6 sequence (Q9UKT9 whole entry)": "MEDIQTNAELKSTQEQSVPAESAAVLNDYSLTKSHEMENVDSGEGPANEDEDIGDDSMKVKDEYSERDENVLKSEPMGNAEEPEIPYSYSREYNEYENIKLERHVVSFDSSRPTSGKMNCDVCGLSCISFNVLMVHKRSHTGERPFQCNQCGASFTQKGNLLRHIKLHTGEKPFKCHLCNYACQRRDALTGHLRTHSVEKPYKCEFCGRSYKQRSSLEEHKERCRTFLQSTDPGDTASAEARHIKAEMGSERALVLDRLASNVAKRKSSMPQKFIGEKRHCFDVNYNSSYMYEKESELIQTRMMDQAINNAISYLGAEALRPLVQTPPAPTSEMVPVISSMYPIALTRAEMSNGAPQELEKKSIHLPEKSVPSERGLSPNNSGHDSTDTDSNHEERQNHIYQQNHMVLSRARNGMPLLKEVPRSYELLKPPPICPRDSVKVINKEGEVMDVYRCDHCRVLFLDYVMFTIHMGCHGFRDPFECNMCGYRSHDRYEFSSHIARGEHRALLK", "T6 sequence (Q96SW2 whole entry)": "as the sequence (Q96SW2 whole entry) above", "T6 sequence (Q16531 whole entry partner)": "as the sequence (Q16531 whole entry partner) above", "assay": "Western-blot assay, substrate protein degradation in hPBMCs: IKZF3"}}}
{"smiles": "O=C1CCN(N2Cc3cc(CN4CCC(n5c(=O)[nH]c6cc(F)ccc65)CC4)ccc3C2=O)C(=O)N1", "note": "[GT-07579, 1-(5-((4-(5-fluoro-2-oxo-2,3-dihydro-1H-benzo[d]imidazol-1-yl)piperidin-1-yl)methyl)-1-oxoisoindolin-2-yl)dihydropyrimidine-2,4(1H,3H)-dione]", "values": [{"measurement": "substrate protein remaining % GSPT1", "setting": "GSPT1", "result": "A (0% ≤ substrate protein remaining % ≤ 80%)"}, {"measurement": "substrate protein remaining % IKZF2", "setting": "IKZF2", "result": "A (0% ≤ substrate protein remaining % ≤ 80%)"}, {"measurement": "substrate protein remaining % CK1α", "setting": "CK1α", "result": "B (80%< substrate protein remaining %≤ 100%)"}, {"measurement": "substrate protein remaining % WEE1", "setting": "WEE1", "result": "A (0% ≤ substrate protein remaining % ≤ 80%)"}, {"measurement": "substrate protein remaining % IKZF1", "setting": "IKZF1", "result": "A (0% ≤ substrate protein remaining % ≤ 80%)"}, {"measurement": "substrate protein remaining % IKZF3", "setting": "IKZF3", "result": "B (80%< substrate protein remaining %≤ 100%)"}]}
{"smiles": "O=C1CCN(N2C(=O)c3ccc(CN4CC=C(c5c[nH]c6cc(F)ccc56)CC4)cc3C2=O)C(=O)N1", "note": "[GT-07580, 2-(2,4-dioxotetrahydropyrimidin-1(2H)-yl)-5-((4-(6-fluoro-1H-indol-3-yl)-3,6-dihydropyridin-1(2H)-yl)methyl)isoindoline-1,3-dione]", "values": [{"measurement": "substrate protein remaining % GSPT1", "setting": "GSPT1", "result": "A (0% ≤ substrate protein remaining % ≤ 80%)"}, {"measurement": "substrate protein remaining % IKZF2", "setting": "IKZF2", "result": "A (0% ≤ substrate protein remaining % ≤ 80%)"}, {"measurement": "substrate protein remaining % CK1α", "setting": "CK1α", "result": "B (80%< substrate protein remaining %≤ 100%)"}, {"measurement": "substrate protein remaining % WEE1", "setting": "WEE1", "result": "A (0% ≤ substrate protein remaining % ≤ 80%)"}, {"measurement": "substrate protein remaining % IKZF1", "setting": "IKZF1", "result": "A (0% ≤ substrate protein remaining % ≤ 80%)"}, {"measurement": "substrate protein remaining % IKZF3", "setting": "IKZF3", "result": "A (0% ≤ substrate protein remaining % ≤ 80%)"}]}
{"smiles": "Cn1cc(C2CCN(Cc3ccc4c(c3)C(=O)N(N3CCC(=O)NC3=O)C4=O)CC2)c2ccc(F)cc21", "note": "[GT-07581, 2-(2,4-dioxotetrahydropyrimidin-1(2H)-yl)-5-((4-(6-fluoro-1-methyl-1H-indol-3-yl)piperidin-1-yl)methyl)isoindoline-1,3-dione]", "values": [{"measurement": "substrate protein remaining % GSPT1", "setting": "GSPT1", "result": "A (0% ≤ substrate protein remaining % ≤ 80%)"}, {"measurement": "substrate protein remaining % IKZF2", "setting": "IKZF2", "result": "A (0% ≤ substrate protein remaining % ≤ 80%)"}, {"measurement": "substrate protein remaining % CK1α", "setting": "CK1α", "result": "B (80%< substrate protein remaining %≤ 100%)"}, {"measurement": "substrate protein remaining % WEE1", "setting": "WEE1", "result": "A (0% ≤ substrate protein remaining % ≤ 80%)"}, {"measurement": "substrate protein remaining % IKZF1", "setting": "IKZF1", "result": "A (0% ≤ substrate protein remaining % ≤ 80%)"}, {"measurement": "substrate protein remaining % IKZF3", "setting": "IKZF3", "result": "B (80%< substrate protein remaining %≤ 100%)"}]}
{"smiles": "O=C1CCN(N2C(=O)c3ccc(CN4CCC(c5c[nH]c6ncccc56)CC4)cc3C2=O)C(=O)N1", "note": "[GT-07582, 5-((4-(1H-pyrrolo[2,3-b]pyridin-3-yl)piperidin-1-yl)methyl)-2-(2,4-dioxotetrahydropyrimidin-1(2H)-yl)isoindoline-1,3-dione]", "values": [{"measurement": "substrate protein remaining % GSPT1", "setting": "GSPT1", "result": "A (0% ≤ substrate protein remaining % ≤ 80%)"}, {"measurement": "substrate protein remaining % IKZF2", "setting": "IKZF2", "result": "A (0% ≤ substrate protein remaining % ≤ 80%)"}, {"measurement": "substrate protein remaining % CK1α", "setting": "CK1α", "result": "B (80%< substrate protein remaining %≤ 100%)"}, {"measurement": "substrate protein remaining % WEE1", "setting": "WEE1", "result": "A (0% ≤ substrate protein remaining % ≤ 80%)"}, {"measurement": "substrate protein remaining % IKZF1", "setting": "IKZF1", "result": "A (0% ≤ substrate protein remaining % ≤ 80%)"}, {"measurement": "substrate protein remaining % IKZF3", "setting": "IKZF3", "result": "B (80%< substrate protein remaining %≤ 100%)"}]}
{"smiles": "O=C1CCN(N2C(=O)c3ccc(CN4CCC(n5c(=O)[nH]c6cc(F)ccc65)CC4)cc3C2=O)C(=O)N1", "note": "[GT-07583, 2-(2,4-dioxotetrahydropyrimidin-1(2H)-yl)-5-((4-(5-fluoro-2-oxo-2,3-dihydro-1H-benzo[d]imidazol-1-yl)piperidin-1-yl)methyl)isoindoline-1,3-dione]", "values": [{"measurement": "substrate protein remaining % GSPT1", "setting": "GSPT1", "result": "A (0% ≤ substrate protein remaining % ≤ 80%)"}, {"measurement": "substrate protein remaining % IKZF2", "setting": "IKZF2", "result": "B (80%< substrate protein remaining %≤ 100%)"}, {"measurement": "substrate protein remaining % CK1α", "setting": "CK1α", "result": "B (80%< substrate protein remaining %≤ 100%)"}, {"measurement": "substrate protein remaining % WEE1", "setting": "WEE1", "result": "A (0% ≤ substrate protein remaining % ≤ 80%)"}, {"measurement": "substrate protein remaining % IKZF1", "setting": "IKZF1", "result": "B (80%< substrate protein remaining %≤ 100%)"}, {"measurement": "substrate protein remaining % IKZF3", "setting": "IKZF3", "result": "B (80%< substrate protein remaining %≤ 100%)"}]}
{"smiles": "O=C1CCN(N2Cc3cc(CN4CCC(N5CCCc6cc(F)ccc65)CC4)ccc3C2=O)C(=O)N1", "note": "[GT-07584, 1-(5-((4-(6-fluoro-3,4-dihydroquinolin-1(2H)-yl)piperidin-1-yl)methyl)-1-oxoisoindolin-2-yl)dihydropyrimidine-2,4(1H,3H)-dione]", "values": [{"measurement": "substrate protein remaining % GSPT1", "setting": "GSPT1", "result": "A (0% ≤ substrate protein remaining % ≤ 80%)"}, {"measurement": "substrate protein remaining % IKZF2", "setting": "IKZF2", "result": "B (80%< substrate protein remaining %≤ 100%)"}, {"measurement": "substrate protein remaining % CK1α", "setting": "CK1α", "result": "B (80%< substrate protein remaining %≤ 100%)"}, {"measurement": "substrate protein remaining % WEE1", "setting": "WEE1", "result": "A (0% ≤ substrate protein remaining % ≤ 80%)"}, {"measurement": "substrate protein remaining % IKZF1", "setting": "IKZF1", "result": "A (0% ≤ substrate protein remaining % ≤ 80%)"}, {"measurement": "substrate protein remaining % IKZF3", "setting": "IKZF3", "result": "B (80%< substrate protein remaining %≤ 100%)"}]}
{"smiles": "O=C1CCN(N2Cc3cc(CN4CCC(N5CCOc6cc(F)ccc65)CC4)ccc3C2=O)C(=O)N1", "note": "[GT-07585, 1-(5-((4-(7-fluoro-2,3-dihydro-4H-benzo[b][1,4]oxazin-4-yl)piperidin-1-yl)methyl)-1-oxoisoindolin-2-yl)dihydropyrimidine-2,4(1H,3H)-dione]", "values": [{"measurement": "substrate protein remaining % GSPT1", "setting": "GSPT1", "result": "A (0% ≤ substrate protein remaining % ≤ 80%)"}, {"measurement": "substrate protein remaining % IKZF2", "setting": "IKZF2", "result": "B (80%< substrate protein remaining %≤ 100%)"}, {"measurement": "substrate protein remaining % CK1α", "setting": "CK1α", "result": "B (80%< substrate protein remaining %≤ 100%)"}, {"measurement": "substrate protein remaining % WEE1", "setting": "WEE1", "result": "A (0% ≤ substrate protein remaining % ≤ 80%)"}, {"measurement": "substrate protein remaining % IKZF1", "setting": "IKZF1", "result": "A (0% ≤ substrate protein remaining % ≤ 80%)"}, {"measurement": "substrate protein remaining % IKZF3", "setting": "IKZF3", "result": "B (80%< substrate protein remaining %≤ 100%)"}]}
{"smiles": "O=C1CCN(N2Cc3cc(CN4CCC(N5C(=O)COc6cc(F)ccc65)CC4)ccc3C2=O)C(=O)N1", "note": "[GT-07586, 1-(5-((4-(7-fluoro-3-oxo-2,3-dihydro-4H-benzo[b][1,4]oxazin-4-yl)piperidin-1-yl)methyl)-1-oxoisoindolin-2-yl)dihydropyrimidine-2,4(1H,3H)-dione]", "values": [{"measurement": "substrate protein remaining % GSPT1", "setting": "GSPT1", "result": "A (0% ≤ substrate protein remaining % ≤ 80%)"}, {"measurement": "substrate protein remaining % IKZF2", "setting": "IKZF2", "result": "B (80%< substrate protein remaining %≤ 100%)"}, {"measurement": "substrate protein remaining % CK1α", "setting": "CK1α", "result": "B (80%< substrate protein remaining %≤ 100%)"}, {"measurement": "substrate protein remaining % WEE1", "setting": "WEE1", "result": "A (0% ≤ substrate protein remaining % ≤ 80%)"}, {"measurement": "substrate protein remaining % IKZF1", "setting": "IKZF1", "result": "A (0% ≤ substrate protein remaining % ≤ 80%)"}, {"measurement": "substrate protein remaining % IKZF3", "setting": "IKZF3", "result": "B (80%< substrate protein remaining %≤ 100%)"}]}
{"smiles": "O=C1CCN(N2Cc3cc(CN4CCC(C5CCOc6cc(F)ccc65)CC4)ccc3C2=O)C(=O)N1", "note": "(stereo not drawn) [GT-07587, 1-(5-((4-(7-fluorochroman-4-yl)piperidin-1-yl)methyl)-1-oxoisoindolin-2-yl)dihydropyrimidine-2,4(1H,3H)-dione]", "values": [{"measurement": "substrate protein remaining % GSPT1", "setting": "GSPT1", "result": "A (0% ≤ substrate protein remaining % ≤ 80%)"}, {"measurement": "substrate protein remaining % IKZF2", "setting": "IKZF2", "result": "B (80%< substrate protein remaining %≤ 100%)"}, {"measurement": "substrate protein remaining % CK1α", "setting": "CK1α", "result": "B (80%< substrate protein remaining %≤ 100%)"}, {"measurement": "substrate protein remaining % WEE1", "setting": "WEE1", "result": "A (0% ≤ substrate protein remaining % ≤ 80%)"}, {"measurement": "substrate protein remaining % IKZF1", "setting": "IKZF1", "result": "A (0% ≤ substrate protein remaining % ≤ 80%)"}, {"measurement": "substrate protein remaining % IKZF3", "setting": "IKZF3", "result": "B (80%< substrate protein remaining %≤ 100%)"}]}
